Where “and” joins values, the source holds several entries; their conditions need not be identical. Equal values may be shown once.
What was measured:
[1] = tested on: patients with panic disorder; assay: Clinical Global Impression Scale, improvement subscale (CGI-I); assay type: in vivo, human
Description: (§1) This investigator-initiated study was performed under a prospective clinical trial protocol approved by the Institute of Mental Health and Addictology, which is accredited by the Ministry of Health of the Russian Federation to conduct clinical trials (#57689). Study conduct was in compliance with all ethical standards and good clinical practice. Ninety outpatients with a diagnosis of “panic disorder» (F41.0) according to ICD-10 were enrolled through the Institute of Mental Health and Addictology. Five patients dropped out of the study due to minor side effects, predominantly lightheadedness and headaches, and 4 patients dropped out of the study for unspecified reasons. As the intention to treat analysis was not utilized due to the open label design of the study, 81 patients with PD (49 women and 32 men), mean age was 35.2 years (range […]) were studied. Patients were randomized into 2 groups: with “pure” PD (group 1) and “comorbid” PD, when it was co-diagnosed with other mental illnesses (group 2). All patients with isolated PD (Group 1, n=42) received monotherapy with xenon at the aforementioned schedule, while the majority of patients (94.9%) with PD and comorbid conditions, which were predominantly depression (group 2, n=39), in addition to xenon administration continued treatment for comorbid psychiatric disorders, which mainly consisted of antidepressants (SSRIs and SNRIs). In these patients, the reason for xenon treatment was the increase in the frequency and severity of panic attacks despite ongoing treatment with stable pharmacotherapy of at least 3 to 6 months' duration.
(§2) Administration of xenon was performed through inhalation of xenon-oxygen mixtures that were escalated from 15%/85% to 30%/70% with titration increments of 5% per session. Each patient in the study underwent between 6 and 7 treatments with xenon-oxygen mixture. The first three sessions were carried out daily and from session 4 onward—every other day. The selected dosing regime and the composition of the gas mixtures were based on the historical evidence of safety of subanesthetic use of xenon in imaging.
(§3) Medical grade xenon (“medksenon»®, 99.9999%, manufacturer: Atommedcenter, Moscow, Russia) and medical grade oxygen in separate containers were admixed. Mixing and administration of gases in preset concentration and volume was accomplished with the use of the medical device MAGi-AMTS1, which enables the operator to adjust the concentration of xenon in the gas mixture, and which contains the electronic flow meter with a software module that allows for such adjustments. Administration of xenon-oxygen mixture to the patient was carried out via a face mask. Patients were asked to slowly inhale, holding breath for 5 to 10 seconds; exhale into the loop and after 35-40 seconds exhale outside the contour and breath in the new portion of gas mixture. Xenon inhalation lasted from 2.5 to 4 minutes, and the xenon consumption was capped at 3.0 liters per procedure. The patients were assessed subjectively by the provider, while the vital signs (pulse, blood pressure, oxygen saturation) were continuously monitored.
(§4) Patients were evaluated after each xenon inhalation and at 30 and 180 days after completion of treatment. To this end, we employed clinical psychopathological and clinical catamnestic methods, and psychometric scales that are widely used internationally to assess the treatment of mental disorders. Scale Assessment, Zung Self-Rating Anxiety Scale (SAS) was performed prior to starting therapy (V1), and at 1 and 6 months after treatment. According to this scale, SAS index of less than 45 points corresponds to the normal value, 45-59—to mild-to-moderate degree of anxiety, 60-74—to high degree of anxiety, more than 75—to an extremely high-level of anxiety. […]

[2] = tested on: patients with panic disorder; assay: Frequency of major and minor panic attacks; assay type: in vivo, human; conditions: for The frequency of major panic attacks 6 months after treatment, Mean / The frequency of major panic attacks 6 months after treatment, Median / Changes Minor Panic Attacs_V6_V1, Mean / Changes Minor Panic Attacs_V6_V1, Median / Changes_Major Panic Attacs_V6_V1, Mean / Changes_Major Panic Attacs_V6_V1, Median: per month; for Changes Minor Panic Attacs_V6_V1, Mean / Changes Minor Panic Attacs_V6_V1, Median / Changes_Major Panic Attacs_V6_V1, Mean / Changes_Major Panic Attacs_V6_V1, Median: vs before treatment
Description: as §1, §2, §3, §4

[3] = tested on: patients with panic disorder; assay: Tolerability of xenon therapy in the clinical trial; assay type: in vivo, human; conditions: mainly headache and dizziness
Description: This investigator-initiated study was performed under a prospective clinical trial protocol approved by the Institute of Mental Health and Addictology, which is accredited by the Ministry of Health of the Russian Federation to conduct clinical trials (#57689). Study conduct was in compliance with all ethical standards and good clinical practice. Ninety outpatients with a diagnosis of “panic disorder» (F41.0) according to ICD-10 were enrolled through the Institute of Mental Health and Addictology. Five patients dropped out of the study due to minor side effects, predominantly lightheadedness and headaches, and 4 patients dropped out of the study for unspecified reasons. As the intention to treat analysis was not utilized due to the open label design of the study, 81 patients with PD (49 women and 32 men), mean age was 35.2 years (range […]) were studied. Patients were randomized into 2 groups: with “pure” PD (group 1) and “comorbid” PD, when it was co-diagnosed with other mental illnesses (group 2). […]
Medical grade xenon (“medksenon»®, 99.9999%, manufacturer: Atommedcenter, Moscow, Russia) and medical grade oxygen in separate containers were admixed. […] The patients were assessed subjectively by the provider, while the vital signs (pulse, blood pressure, oxygen saturation) were continuously monitored.

[4] = cited from earlier work
NMDA receptor = NMDA receptor (Homo sapiens, UniProt Q05586); conditions: glycine site of the NMDA receptor; cited from earlier work

[Xe] [xenon]
CGI-I, V2: Marked deterioration, share of patients ([1]; Total (n = 81)): 1.2% | CGI-I, V2: Marked improvement, share of patients ([1]; Total (n = 81)): 12.3% | CGI-I, V2: Minimal deterioration, share of patients ([1]; Total (n = 81)): 1.2% | CGI-I, V2: Minimal improvement, share of patients ([1]; Total (n = 81)): 54.3% | CGI-I, V2: No changes, share of patients ([1]; Total (n = 81)): 30.9% | CGI-I, V3: Marked improvement, share of patients ([1]; Total (n = 81)): 25.9% | CGI-I, V3: Minimal improvement, share of patients ([1]; Total (n = 81)): 61.7% | CGI-I, V3: No changes, share of patients ([1]; Total (n = 81)): 12.3% | CGI-I, V4: Marked improvement, share of patients ([1]; Total (n = 81)): 54.3% | CGI-I, V4: Minimal improvement, share of patients ([1]; Total (n = 81)): 40.7% | CGI-I, V4: No changes, share of patients ([1]; Total (n = 81)): 4.9% | CGI-I, V5: Marked improvement, share of patients ([1]; Total (n = 81)): 79.0% | CGI-I, V5: Minimal improvement, share of patients ([1]; Total (n = 81)): 18.5% | CGI-I, V5: Very marked improvement, share of patients ([1]; Total (n = 81)): 2.5% | CGI-I, V6: Marked improvement, share of patients ([1]; Total (n = 81)): 66.7% | CGI-I, V6: Very marked improvement, share of patients ([1]; Total (n = 81)): 33.3% | CGI-I, V2: Marked deterioration, share of patients ([1]; «Comorbid PD» (n = 39)): .0% | CGI-I, V2: Marked improvement, share of patients ([1]; «Comorbid PD» (n = 39)): 12.8% | CGI-I, V2: Minimal deterioration, share of patients ([1]; «Comorbid PD» (n = 39)): .0% | CGI-I, V2: Minimal improvement, share of patients ([1]; «Comorbid PD» (n = 39)): 61.5% | CGI-I, V2: No changes, share of patients ([1]; «Comorbid PD» (n = 39)): 25.6% | CGI-I, V3: Minimal improvement, share of patients ([1]; «Comorbid PD» (n = 39)): 69.2% | CGI-I, V3: No changes, share of patients ([1]; «Comorbid PD» (n = 39)): 20.5% | CGI-I, V4: Marked improvement, share of patients ([1]; «Comorbid PD» (n = 39)): 25.6% | CGI-I, V4: Minimal improvement, share of patients ([1]; «Comorbid PD» (n = 39)): 64.1% | CGI-I, V4: No changes, share of patients ([1]; «Comorbid PD» (n = 39)): 10.3% | CGI-I, V5: Marked improvement, share of patients ([1]; «Comorbid PD» (n = 39)): 61.5% | CGI-I, V5: Minimal improvement, share of patients ([1]; «Comorbid PD» (n = 39)): 38.5% | CGI-I, V5: Very marked improvement, share of patients ([1]; «Comorbid PD» (n = 39)): .0% | CGI-I, V6: Marked improvement, share of patients ([1]; «Comorbid PD» (n = 39)): 87.2% | CGI-I, V6: Very marked improvement, share of patients ([1]; «Comorbid PD» (n = 39), after 6 treatments): 12.8% | CGI-I, V3: Marked improvement, share of patients ([1]; «Comorbid PD» (n = 39), after the third treatment): 10.3% | CGI-I, V2: Marked deterioration, share of patients ([1]; «Pure PD» (n = 42)): 2.4% | CGI-I, V2: Marked improvement, share of patients ([1]; «Pure PD» (n = 42)): 11.9% | CGI-I, V2: Minimal deterioration, share of patients ([1]; «Pure PD» (n = 42)): 2.4% | CGI-I, V2: Minimal improvement, share of patients ([1]; «Pure PD» (n = 42)): 47.6% | CGI-I, V2: No changes, share of patients ([1]; «Pure PD» (n = 42)): 35.7% | CGI-I, V3: Minimal improvement, share of patients ([1]; «Pure PD» (n = 42)): 54.8% | CGI-I, V3: No changes, share of patients ([1]; «Pure PD» (n = 42)): 4.8% | CGI-I, V4: Marked improvement, share of patients ([1]; «Pure PD» (n = 42)): 81.0% | CGI-I, V4: Minimal improvement, share of patients ([1]; «Pure PD» (n = 42)): 19.0% | CGI-I, V4: No changes, share of patients ([1]; «Pure PD» (n = 42)): .0% | CGI-I, V5: Marked improvement, share of patients ([1]; «Pure PD» (n = 42)): 95.2% | CGI-I, V5: Minimal improvement, share of patients ([1]; «Pure PD» (n = 42)): .0% | CGI-I, V5: Very marked improvement, share of patients ([1]; «Pure PD» (n = 42)): 4.8% | CGI-I, V6: Marked improvement, share of patients ([1]; «Pure PD» (n = 42)): 47.6% | CGI-I, V6: Very marked improvement, share of patients ([1]; «Pure PD» (n = 42), after 6 treatments): 52.4% | CGI-I, V3: Marked improvement, share of patients ([1]; «Pure PD» (n = 42), after the third treatment): 40.5% | The frequency of minor panic attacks 6 months after treatment, Mean ([2]; Total (n = 81)): .6 times/month | The frequency of minor panic attacks 6 months after treatment, Median ([2]; Total (n = 81)): .0 times/month | The frequency of major panic attacks 6 months after treatment, Mean ([2]; Total (n = 81)): .0 | The frequency of major panic attacks 6 months after treatment, Median ([2]; Total (n = 81)): .0 | Changes Minor Panic Attacs_V6_V1, Mean ([2]; Total (n = 81)): −42.7 | Changes Minor Panic Attacs_V6_V1, Median ([2]; Total (n = 81)): −55.0 | Changes_Major Panic Attacs_V6_V1, Mean ([2]; Total (n = 81)): −9.6 | Changes_Major Panic Attacs_V6_V1, Median ([2]; Total (n = 81)): −7.0 | “major” panic attacks 6 months after treatment ([2]; both groups): absent | panic attacks after the 6th treatment ([2]; conclusion from HADS_T, CGI-I, CGI-S): complete cessation of panic attacks | The frequency of minor panic attacks 6 months after treatment, Mean ([2]; «Comorbid PD» (n = 39)): 1 times/month and 1.0 times/month | The frequency of minor panic attacks 6 months after treatment, Median ([2]; «Comorbid PD» (n = 39)): .0 times/month | The frequency of major panic attacks 6 months after treatment, Mean ([2]; «Comorbid PD» (n = 39)): .0 | The frequency of major panic attacks 6 months after treatment, Median ([2]; «Comorbid PD» (n = 39)): .0 | Changes Minor Panic Attacs_V6_V1, Mean ([2]; «Comorbid PD» (n = 39)): −40.7 | Changes Minor Panic Attacs_V6_V1, Median ([2]; «Comorbid PD» (n = 39)): −40.0 | Changes_Major Panic Attacs_V6_V1, Mean ([2]; «Comorbid PD» (n = 39)): −11.7 | Changes_Major Panic Attacs_V6_V1, Median ([2]; «Comorbid PD» (n = 39)): −12.0 | The frequency of minor panic attacks 6 months after treatment, Median ([2]; «Pure PD» (n = 42)): .0 times/month | The frequency of major panic attacks 6 months after treatment, Mean ([2]; «Pure PD» (n = 42)): .0 | The frequency of major panic attacks 6 months after treatment, Median ([2]; «Pure PD» (n = 42)): .0 | Changes Minor Panic Attacs_V6_V1, Mean ([2]; «Pure PD» (n = 42)): −44.5 | Changes Minor Panic Attacs_V6_V1, Median ([2]; «Pure PD» (n = 42)): −55.0 | Changes_Major Panic Attacs_V6_V1, Mean ([2]; «Pure PD» (n = 42)): −7.7 | Changes_Major Panic Attacs_V6_V1, Median ([2]; «Pure PD» (n = 42)): −3.0 | patients dropping out from the study due to side effects ([3]; 5 patients): 5.8% | tolerability of xenon therapy ([3]; side effects, were rare): generally well tolerated | time at which end-expiratory xenon concentration reached a plateau ([4]; during inhalational anesthesia): 7 min | time to successful loading of xenon in the brain ([4]; during inhalational anesthesia): approximately 15 minutes | half-time for equilibration between xenon concentration in arterial blood and at the site of action ([4]; inhalation): 1.49 ± 0.04 min | mechanism of inhibition of NMDA receptor activity (NMDA receptor): competitive inhibition of the co-agonist glycine

From US20200054671A1, “TREATMENT OF ANXIETY DISORDER AND AUGMENTATION OF ANTI-ANXIETY INTERVENTIONS BY ADMINISTRATION OF NOBLE GAS CONTAINING MIXTURES” (NOBILIS THERAPEUTICS, INC., priority 2016, published 2020)
